Measured values reported in BigSolDB 2.1.

Settings: 298.15 K

O=[N+]([O-])c1cccc2ccccc12
Settings | solubility (mole fraction)
in 2-ethylhexanol | 0.0411
in 2-methyl-1-butanol | 0.0297
in 2-methyl-1-pentanol | 0.0367
in 2-pentanol | 0.0324
in 4-methyl-2-pentanol | 0.0311
in MTBE | 0.214
in acetonitrile | 0.328
in benzene | 0.423
in butyronitrile | 0.383
in cyclohexane | 0.025
in cyclooctane | 0.036
in cyclopentanol | 0.0599
in dibutyl ether | 0.0996
in diethyl ether | 0.237
in diisopropyl ether | 0.104
in ethanol | 0.0277
in ethylene glycol | 0.00463
in isobutanol | 0.0173
in isooctane | 0.0163
in isopentanol | 0.032
in isopropanol | 0.0213
in methylcyclohexane | 0.0277
in n-butanol | 0.0348
in n-decane | 0.0274
in n-decanol | 0.0666
in n-heptane | 0.0198
in n-heptanol | 0.0539
in n-hexadecane | 0.0394
in n-hexane | 0.0174
in n-hexanol | 0.0493
in n-nonane | 0.0252
in n-octane | 0.0223
in n-octanol | 0.0593
in n-pentanol | 0.0424
in n-propanol | 0.0295
in propionitrile | 0.37
in sec-butanol | 0.0331
in tert-butanol | 0.0228
in tert-butylcyclohexane | 0.0303
in toluene | 0.421
in undecane | 0.0293
